In brackets after ≈: the same amount, converted by molar mass. Entries after “also recorded” stand apart in the source; their conditions may differ.

These results are taken from US8173632B2, “Process for the modification of the solid state of a compound and co-amorphous compositions produced with same” (priority 2007, dated 2012).

The conditions of series [1]: room temperature; cited from earlier work.
Series [2] can be described thus: Room temperature storage stability of the non-crystalline / co-amorphous form against recrystallization. It is filed as physicochemical. Particulars: for stability of the non-crystalline / co-amorphous form, tendency to recrystallization (in words): room temperature storage. The source says: The present invention is directed to stable crystalline and non-crystalline forms of organic compositions, particularly pharmaceutical compositions, that are stable at room temperature and to processes for producing the stable crystalline and non-crystalline forms with the process of the invention.
Within an hour of the evaporation, the system stabilized with 80 percent or more of the mass of the sample cured to a clear non-crystalline form rather than a crystalline form.
After the 6 months of storage, the laser treated aspirin was studied by PXRD.
(§1) Subsequent tests with the protocol of Example 1b were repeated with the order of long and short wavelengths reversed, i.e., short wavelength followed by long wavelength cycled sequenced laser treatment. This protocol also produced up to 90 percent yields of room temperature stable non-crystalline glass aspirin, which remained stable at room temperature for over 23 months. The Petri dish containing such a sample of non-crystalline aspirin was placed on edge for a period of about six weeks.
The glass cover was removed and the sample was allowed to desolvate in an open container through slow evaporation at about 20° C. and a relative humidity of 31 percent. Before the solvent had fully evaporated, the sample developed a few small areas of apparent crystallization that were surrounded with marker lines. As the evaporation continued, no significant extension of the crystal fronts was observed.

Series [3] in a line: Petri dish with non-crystalline aspirin placed on edge (flow test). Type of series: physicochemical. To be noted: Petri dish placed on edge for about six weeks.
From the text: as §1

The conditions of series [4]: literature reports; temperature as stated in value; cited from earlier work.
For series [5] the following is noted: bulk form, same mass; cited from earlier work.

Take `CC(=O)Oc1ccccc1C(=O)O` [crystalline aspirin, Aspirin]: the solubility in water in series [1] was 3.33 mg/mL (≈ 18.5 mM).

Take `CC(=O)Oc1ccccc1C(=O)O` [non-crystalline aspirin, Aspirin]: in series [2] (room temperature of about 18° to 22° C. and about 30 to 40 percent humidity, Example 1b), the “period of storage with no change in appearance of the sample” value is on record as “over 6 months”. The “stability of the non-crystalline / co-amorphous form, tendency to recrystallization (in words)” value in series [2] was “remain stable at room temperature for at least up to about a year; also recorded: stable at room temperature once the solvent had evaporated; also recorded: No crystallization has been observed in similarly prepared samples following an additional six months of storage”. In series [2] (room temperature, Example 1c, short wavelength followed by long wavelength), the “period the non-crystalline glass remained stable” value was “over 23 months”. Also, the “flowing of the sample” value in series [3] is “No flowing of the sample was observed”.

Consider `CC(=O)Oc1ccccc1C(=O)O` [Aspirin Form II, aspirin], for which the “stability of prior art aspirin forms against conversion / crystallization (in words)” value in series [4] is on record as “kinetically stable at 100 K (−173° C.), but converts back to Form I at ambient conditions”.

`CC(=O)Oc1ccccc1C(=O)O` [amorphous aspirin, aspirin]: the “stability of prior art aspirin forms against conversion / crystallization (in words)” value in series [4] is “converts rapidly to the crystalline Form I”.

In the case of `CC(=O)Oc1ccccc1C(=O)O` [vitreous aspirin, aspirin], in series [4], the “stability of prior art aspirin forms against conversion / crystallization (in words)” value is “did not crystallize for four to five days at 298K”. Besides, in series [5], the “dissolution of bulk vitreous aspirin compared with powdered crystals” value is recorded as “dissolve more slowly than the same mass of finely powdered crystals of aspirin”.

`O=C1[C@H](CC[C@H](O)c2ccc(F)cc2)[C@@H](c2ccc(O)cc2)N1c1ccc(F)cc1` [non-crystalline ezetimibe, Ezetimibe]: the “stability of the non-crystalline / co-amorphous form, tendency to recrystallization (in words)” value in series [2] is “remained stable for five weeks; also recorded: resisted crystallization even when adjacent to an organizing crystal front”.
